Results published in patent US20090172831A1, “Methods for the production of plants resistant to HPPD herbicides” (Syngenta Limited, priority 2000, published 2009).

Legend:
Arabidopsis HPPD = target: T1, Arabidopsis HPPD (Arabidopsis thaliana, UniProt P93836); assay: Dissociation of enzyme/inhibitor complexes by exchange with 14C-labelled inhibitor (koff; Kd = koff/kon); format: binding
T1 construct: made in house; host or cells: E. coli BL21 (DE3) codon+ RP
T1 sequence (P93836 1-445): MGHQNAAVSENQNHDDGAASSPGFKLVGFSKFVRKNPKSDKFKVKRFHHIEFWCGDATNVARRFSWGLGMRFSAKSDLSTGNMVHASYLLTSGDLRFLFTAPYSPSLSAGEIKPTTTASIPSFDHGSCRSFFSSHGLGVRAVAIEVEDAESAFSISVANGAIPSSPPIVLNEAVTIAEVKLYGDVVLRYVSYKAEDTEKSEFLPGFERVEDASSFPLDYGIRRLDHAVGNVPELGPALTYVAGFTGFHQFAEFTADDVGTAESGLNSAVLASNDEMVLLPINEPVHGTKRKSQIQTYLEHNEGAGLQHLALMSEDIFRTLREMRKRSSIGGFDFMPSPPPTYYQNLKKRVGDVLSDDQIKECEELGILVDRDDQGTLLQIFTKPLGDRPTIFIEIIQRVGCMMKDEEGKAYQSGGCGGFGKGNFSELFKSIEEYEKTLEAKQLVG
Protocol: It will be appreciated that many suitable methods known in the art for determining such low koff values are suitable for working the current invention. These include measuring rates of exchange of radio or otherwise labelled inhibitors either with or away from the enzyme inhibitor complex. For example enzyme inhibitor complexes can readily be prepared by incubating HPPD preparations with labelled or unlabelled inhibitor and then, after suitable periods, optionally rapidly separating the thus formed enzyme inhibitor complex from excess inhibitor by any suitable method such as ultrafiltration, binding to filters or exchange down a gel filtration column. Exchange reactions with the, thus prepared enzyme inhibitor complex is then initiated by addition of, as appropriate, excess labelled or unlabelled inhibitor. […] Many methods such as radiometric, fluorimetric, NMR, fluorescence depolarisation, EPR, Mossbauer, UV/VIS spectrophotometry etc. or phonon resonance can, in principle, be used to monitor the enzyme/ligand exchange reactions and, particularly in this case where the enzyme contains an iron atom at the ligand binding site. Optionally, the monitoring method may be continuous (as, for example, with scintillation proximity/bead-based methods) or, discontinuous, based upon collection of data at various timepoints wherein samples are removed and the bound and unbound label components rapidly separated and quantitated.
(§1) Values of koff can suitably be calculated by computer fitting based upon is numerical integration of the exchange data along with information on the active-site concentration of HPPD and upon kon values obtained as described below. […] In any event, koff values are always here calculated from the rate of the major slow exchange reaction.
^14C mesotrione is of specific activity 1.12 GBq/mmol. […] Following this initial binding reaction, exchange reactions are initiated by addition of cold mesotrione to a final concentration of 60 μM and 200 μl aliquots removed at various times to rapid chromatography down a NAP5 gel filtration column equilibrated in 50 mM BTP at pH 7 containing 0.1 M KCl, separation into fractions containing protein-bound or free radiolabel and liquid scintillation counting.
Nevertheless, here, for practical purposes, koff values are always here calculated from the rate of the major slow exchange reaction.
Not all test inhibitors are readily available in a radiolabelled form.

Wheat HPPD = Wheat HPPD (Triticum aestivum, UniProt A0A3B6NLC6); assay: as above; format: binding
Wheat HPPD, sequence (A0A3B6NLC6 entry or part of it): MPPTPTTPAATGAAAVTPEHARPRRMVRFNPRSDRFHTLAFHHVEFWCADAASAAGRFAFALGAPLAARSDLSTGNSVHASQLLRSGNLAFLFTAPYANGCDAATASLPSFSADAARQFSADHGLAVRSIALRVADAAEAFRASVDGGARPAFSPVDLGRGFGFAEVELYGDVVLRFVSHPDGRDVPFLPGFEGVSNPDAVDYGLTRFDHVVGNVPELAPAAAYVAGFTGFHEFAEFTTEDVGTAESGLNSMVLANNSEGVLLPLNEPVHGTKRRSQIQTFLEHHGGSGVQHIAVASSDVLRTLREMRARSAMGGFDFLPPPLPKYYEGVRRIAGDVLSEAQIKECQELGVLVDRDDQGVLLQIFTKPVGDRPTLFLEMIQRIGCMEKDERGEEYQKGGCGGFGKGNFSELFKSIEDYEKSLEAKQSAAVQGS
Source text: (§2) Herbicidal inhibitors of HPPD are found here to have generally low values of koff (in the range less than 0.0003 s^−1, often less than 0.000001 s^−1). It will be appreciated that many suitable methods known in the art for determining such low koff values are suitable for working the current invention. These include measuring rates of exchange of radio or otherwise labelled inhibitors either with or away from the enzyme inhibitor complex. For example enzyme inhibitor complexes can readily be prepared by incubating HPPD preparations with labelled or unlabelled inhibitor and then, after suitable periods, optionally rapidly separating the thus formed enzyme inhibitor complex from excess inhibitor by any suitable method such as ultrafiltration, binding to filters or exchange down a gel filtration column. Exchange reactions with the, thus prepared enzyme inhibitor complex is then initiated by addition of, as appropriate, excess labelled or unlabelled inhibitor. HPPD preparations suitable for use in the methods of the current invention are relatively unpurified, buffer-exchanged, supernatant fractions of spun crude lysates of E. coli strains engineered to express the HPPD enzyme of interest at a level of, typically, about 0.25-10% of the total soluble protein. Many methods such as radiometric, fluorimetric, NMR, fluorescence depolarisation, EPR, Mossbauer, UV/VIS spectrophotometry etc. or phonon resonance can, in principle, be used to monitor the enzyme/ligand exchange reactions and, particularly in this case where the enzyme contains an iron atom at the ligand binding site. Optionally, the monitoring method may be continuous (as, for example, with scintillation proximity/bead-based methods) or, discontinuous, based upon collection of data at various timepoints wherein samples are removed and the bound and unbound label components rapidly separated and quantitated.
as §1, with “reaction. It will be appreciated that within the scope of the current invention many methods of making the desired kinetic comparisons are possible without explicit or rigorous determination of off rates but, based upon the same underlying principle, will achieve the same selection result.” for “reaction.”
The dissociation rates (off rates) of inhibitors selected from Formula 1 and/or 2 and/or 3 and/or 4 from the complexes that they form with test and control HPPD enzymes are suitably measured in a number of ways. Thus, for example, the rates of dissociation of mesotrione, a compound selected from Formula 1 and of the diketonitrile of isoxaflutole, a compound selected from Formula 3 from their respective complexes with, test, wheat HPPD and with, control, Arabidopsis HPPD are compared. The method and results from a typical test are as follows.
^14C mesotrione is of specific activity 1.12 GBq/mmol. This is ˜95% pure radiochemically by TLC and based upon the proportion of material tight-binding to HPPD. Arabidopsis and, (test), wheat HPPD are each diluted to a concentration of ˜0.45 and 0.54 μM, respectively into 1.6 ml of 50 mM Bis-Tris propane buffer at pH 7.0 containing 25% glycerol, 25 mM sodium ascorbate and 3 mg/l of bovine catalase (Sigma C3155˜50,000 units/mg) containing […] ^14C mesotrione and left to react at 25 C for 2.5-3 h. Following this initial binding reaction, exchange reactions are initiated by addition of cold mesotrione to a final concentration of 60 μM and 200 μl aliquots removed at various times to rapid chromatography down a NAP5 gel filtration column equilibrated in 50 mM BTP at pH 7 containing 0.1 M KCl, separation into fractions containing protein-bound or free radiolabel and liquid scintillation counting. […]

P. fluorescens HPPD = P. fluorescens HPPD (Pseudomonas fluorescens, UniProt A0ACG8AE61); assay: as above; format: binding
P. fluorescens HPPD, sequence (A0ACG8AE61 entry or part of it): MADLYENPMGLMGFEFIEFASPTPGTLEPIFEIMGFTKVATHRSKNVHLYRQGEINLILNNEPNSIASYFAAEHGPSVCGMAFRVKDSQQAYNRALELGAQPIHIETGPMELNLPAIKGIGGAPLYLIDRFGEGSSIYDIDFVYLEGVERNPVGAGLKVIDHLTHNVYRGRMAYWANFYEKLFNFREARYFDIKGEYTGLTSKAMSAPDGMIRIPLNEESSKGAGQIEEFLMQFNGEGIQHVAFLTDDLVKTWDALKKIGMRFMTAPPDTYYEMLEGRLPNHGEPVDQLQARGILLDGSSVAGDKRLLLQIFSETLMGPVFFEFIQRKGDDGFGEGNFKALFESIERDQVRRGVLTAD
Source text: as §2
as §1, with “reaction. It will be appreciated that within the scope of the current invention many methods of making the desired kinetic comparisons are possible without explicit or rigorous determination of off rates but, based upon the same underlying principle, will achieve the same selection result. […]” for “reaction.”
Not all test inhibitors are readily available in a radiolabelled form. A more general method of measuring off rates is to first form the complex with unlabelled test inhibitor, to rapidly exchange the complex free of excess unlabelled inhibitor and to then start the exchange reaction by addition of an excess of a standard labelled inhibitor, the kinetic properties of which are already known. The reaction is then monitored and the relative proportions of bound and unbound label determined at various times. […] The latter is the method of choice when the rate of exchange is fast (t½<3 h).
In, variants of the above methods, off rates are measured either in the presence or absence of ˜25% v/v glycerol. In the presence of glycerol values obtained are generally ˜1.5-3× slower than in its absence although sometimes the change is outside this range or, even, in the other direction. Further examples of data obtained are depicted in the following Table 3.
Crude Extracts of recombinant E. coli strains expressing, in the one case, a control HPPD (from Arabidopsis) and, in the other, one or more test HPPD sequences are prepared as described in the preceding example. The titre of active sites and enzyme activity are also defined and measured as described in the preceding examples. […]

Avena HPPD = Avena HPPD (Avena sativa, UniProt A0ACD5V6K6); assay: In vitro measurements of Avena HPPD (dissociation rate constants, Ki); format: binding; details: read-out: rate constants governing dissociation of the complexes
Avena HPPD, sequence (A0ACD5V6K6 entry or part of it): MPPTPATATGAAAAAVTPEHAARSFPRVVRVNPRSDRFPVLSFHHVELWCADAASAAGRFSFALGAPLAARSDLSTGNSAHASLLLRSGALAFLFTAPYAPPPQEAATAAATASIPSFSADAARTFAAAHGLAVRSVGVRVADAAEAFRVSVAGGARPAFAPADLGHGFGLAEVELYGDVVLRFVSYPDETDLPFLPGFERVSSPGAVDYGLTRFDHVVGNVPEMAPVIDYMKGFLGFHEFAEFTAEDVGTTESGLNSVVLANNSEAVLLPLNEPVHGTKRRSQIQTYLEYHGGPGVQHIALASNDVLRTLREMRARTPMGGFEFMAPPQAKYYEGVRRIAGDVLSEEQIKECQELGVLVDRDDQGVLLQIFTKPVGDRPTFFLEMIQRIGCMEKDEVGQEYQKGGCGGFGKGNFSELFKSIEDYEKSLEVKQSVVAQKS

[1] = tested on: tobacco plants transformed to express wheat HPPD; assay: Tolerance of tobacco transformed with wheat HPPD to herbicides; format: in vivo; details: in vivo
Source text: These constructs were all transformed into Agrobacterium tumefaciens strain LBA4404, which in turn was used to transform tobacco, using methodology described previously.
Explants (i.e. a leaf plus short segment of stem containing the auxiliary bud) are placed into MS agar (+3% sucrose) containing various concentrations of mesotrione (see above) from 0.02 to 2 ppm.

[2] = tested on: tobacco plants transformed to express wheat HPPD; assay: Glasshouse spray test, visible damage; format: in vivo
Protocol: (§3) Plants are 1) untransformed tobacco plants variety Samsun expressing the endogenous tobacco (control) HPPD gene, 2) tobacco plants transformed to express Pseudomonas HPPD according to the examples herein and 3) tobacco plants transformed to express Wheat HPPD also according to the examples herein.
(§4) Large numbers of plants are grown from seed in small pots in the glasshouse to the 5-7 leaf seedling stage and sprayed with a range of doses, suitably from 0.0 to 2000 g/ha, of different HPPD-inhibitor herbicides selected from compounds of Formula 1, 2, 3 and 4. Treatments are suitably Formulated in, for example, deionised water+0.5% Turbocharge™ surfactant or, alternatively, 50% acetone/water and applied at […] to a dozen or more replicates of each line and at each spray rate (where the plants were T1 plants (selfed progeny of primary transformants) and still segregating at normally 1:2:1) or, where, homozygous, 3-6 plants. The extent of visible damage in terms of bleaching of meristems and leaves, eventual necrosis and stunting of growth relative to unsprayed controls is assessed at ˜1 and 3 weeks after treatment. Data from susceptible segregants are excluded from the analysis. In summary, results obtained are as follows.

[3] = tested on: untransformed tobacco plants variety Samsun; assay: Glasshouse spray test, visible damage; format: in vivo; details: spray 0.0 to 2000 g/ha, assessed ~1 and 3 weeks after treatment
Protocol: as §3, §4

[4] = tested on: tobacco plants transformed with Avena sativa 4-HPPD gene; assay: Tolerance of tobacco transformed with Avena sativa HPPD to herbicides; details: in vivo
Source text: The structure of the resulting vector is shown schematically in FIG. 4.
The 4-HPPD plant expression cassette is then ligated in to the binary vector pBin19 restricted with Hind III and EcoRI and transformed into E. coli TOP10 cells (Invitrogen). This binary vector is then transformed into tobacco using methods well known in the art and, for example, as described elsewhere herein.

| Structure (SMILES) | Kd (Arabidopsis HPPD) [nM] | ratio Kd4/Kd1, structure V to structure I (Arabidopsis HPPD) | koff (Arabidopsis HPPD; − glycerol) [s⁻¹] | Kd (Wheat HPPD; Kd, without glycerol, Kd = koff/kon) [nM] | koff (Wheat HPPD; − glycerol) [s⁻¹] | ratio Kd4/Kd1, structure V to structure I (P. fluorescens HPPD) | Kd (P. fluorescens HPPD; without glycerol, Kd = koff/kon, read-out: Kd) [nM] | koff (P. fluorescens HPPD; − glycerol) [s⁻¹] | koff (Avena HPPD) [s⁻¹] | resistance of the transgenic plants compared with that to mesotrione [1] | fold less susceptible of mesotrione than of the named herbicide [2] | fold more susceptible of the herbicide than of mesotrione [3] | resistance of the transgenic plants compared with that to mesotrione [4] |
| --- | --- | --- | --- | --- | --- | --- | --- | --- | --- | --- | --- | --- | --- |
| CC1(C)C(=O)C(C(=O)c2ccc(Cl)cc2[N+](=O)[O-])C(=O)C(C)(C)C1=O [Structure V, 2-[2-nitro-4-chlorobenzoyl]-4,4,6,6-tetramethylcyclohexane-1,3,5-trione] | 0.004 | 0.28 | 1.25e-06 | 0.011 | 4.2e-06 | > 4.3 | > 1.5 | > 0.0002 | < 4e-06 |  |  |  |  |
| CS(=O)(=O)c1cc(C(F)(F)F)ccc1C(=O)c1cnoc1C1CC1 [isoxaflutole, 5-cyclopropyl-4-(2-methylsulphonyl-4-trifluoromethylbenzoyl)-isoxazole] |  |  |  |  |  |  |  |  |  | substantially less resistant | 4-10 fold | 1-2 fold | substantially less resistant |
